From patent publication US7335640B2, “Administration of hypocretin-1 for treatment of narcolepsy” (The Regents of the University of California, priority 1999, dated 2008)
Entries after “also recorded” stand apart in the source; their conditions may differ.

Experiments:
[1] = test system: genetically narcoleptic Doberman pinschers; assay: polygraphic recording of sleep-wake parameters; type: in vivo
Experimental: (§1) Six genetically narcoleptic Doberman pinschers (5 males and 1 female) served as subjects. We analyzed the effect of systemically administered Hcrt-1 on cataplexy with a modified food elicited cataplexy test (FECT). The effect of Hcrt-1 administration on sleep organization was determined using polygraph recording. The effect of Hcrt-1 administration on activity levels and the duration of sleep-waking states over the 24-hr period was determined with actigraphy.
One to 4 μg/kg of Hcrt-1 (orexin-A, #003-30, Phoenix Pharmaceuticals, Mountain View, Calif.) dissolved in normal saline (100 μg in 2 ml) was administered through the cephalic vein using a glass syringe. The glass syringe was pre-soaked in 1% BSA, rinsed in Milli-Q water, then dried at 60° C. prior to use. This treatment combined with the large volume of the dilutent used minimizes problems caused by the “stickiness” of the peptide. […]
Polygraphic recording. […] Polygraphic variables were recorded for 4 hrs after Hcrt-1 (3 μg/kg) or saline injection.
(§2) Data were analyzed with ANOVA, followed by post-hoc comparisons using Newman-Keuls tests. Bonferroni t-tests were done to compare the effect of Hcrt-1 on sleep stages measured with polygraphic recording. One sample t-tests were performed to test the significance of number of cataplectic attacks and FECT time (expressed as a percentage of baseline) after Hcrt-1 within each dose.

[2] = test system: genetically narcoleptic Doberman pinschers; assay: health and behavior observed throughout the study; type: in vivo
Experimental: as §1
(§3) One to 4 μg/kg of Hcrt-1 (orexin-A, #003-30, Phoenix Pharmaceuticals, Mountain View, Calif.) dissolved in normal saline (100 μg in 2 ml) was administered through the cephalic vein using a glass syringe. The glass syringe was pre-soaked in 1% BSA, rinsed in Milli-Q water, then dried at 60° C. prior to use. This treatment combined with the large volume of the dilutent used minimizes problems caused by the “stickiness” of the peptide. On control days, saline was administered in the same manner. Hcrt-1 or control injections were administered daily at the same time.

Hcrt-1 antiserum = assay: solid-phase radioimmunoassay (RIA) for Hcrt-1; type: binding; conditions: competition with 125I-labeled Hcrt-1
Excerpt: Furthermore, sensitivity is increased over that obtained with more traditional methods using identical antibodies and assay volumes. In this system, the antibody is immobilized onto the surface of 96-well Immulon II-coated plates (Dynatech) through attachment of the constant region of the immunoglobulin (Ig) molecule to the purified bacterial wall protein-protein A (the use of this protein greatly increases the capacity of the wells for antibody thereby avoiding the necessity for antibody purification). […] After a pre-determined incubation period separation of bound from free tracer peptide is accomplished by simply pouring out the contents of the wells and washing with buffer. For example, the individual wells of a 96-well plate containing Ab-bound tracer peptide are then physically separated and counted in a gamma counter. […]
The Hcrt-1, iodinated Hcrt-1, and Hcrt-1 antiserum were obtained from Phoenix Pharmaceuticals, Inc. (530 Harbor Blvd, Belmont, Calif.). […] This enables direct reading of radioactivity in a Top Count plate reader (Packard) without the requirement to separate out individual wells.
The 96-well plates are first coated with protein A(Sigma, binding capacity 9-11 mg of human IgG per mg) by adding 0.1 μg in 100 μl of 0.1M sodium bicarbonate, pH9, to each well. […] The antibody dilution used is that which is pre-determined to produce 20-30% maximum binding in the assay. […]

REM sleep = conditions: intracerebroventricular administration; cited from earlier work
[3] = test system: genetically narcoleptic Doberman pinschers; assay: actigraphy of sleep-wake periods and activity level; type: in vivo
Experimental: as §1, §3
The effects of Hcrt-1 on sleep-wake periods were monitored continuously for 24 hrs/day with collar mounted actigraphs (Actiwatch, Mini Mitter Inc, Sundriver, Oreg.) while the animals remained in their home dog runs. Actigraphs were secured to a neck collar that was placed on the dogs throughout the period of study. Data were downloaded to a PC through an inductively coupled Actiwatch reader and further analyzed by a program of our design. The program could integrate total numbers of movements above a preset amplitude for a measurement of total level of activity in 5 minutes epochs. For analysis of sleep state, actigraphs were first calibrated by placing them on an animal instrumented for conventional polygraphic recording. A threshold was determined for discriminating polygraphically defined waking and sleep in 30-sec epochs. The durations of sleep periods were then counted and tabulated by computer. The sleep-wake bouts measured by actigraph correlated well with hypnograms obtained from polygraphic recording (r=0.84, p<0.001).
as §2
Actigraph measurements were used to calculate the duration of sleep and waking states for the nights following injection. First, comparisons of actigraphic measurements and polygraphically recorded sleep states were made and used to determine thresholds for distinguishing sleep and wake periods. Then wake and sleep state periods were quantified starting 2 hrs following administration. […] These effects lasted for more than 24 hrs (p<0.01, F=5.56, df=3, 15 and p<0.002, F=8.58, df=3, 15 for sleep and wake periods respectively). The frequency of sleep and wake bouts was reduced (p<0.05, F=3.35, df=3, 15 and p<0.05, F=3.40, df=3, 15, respectively) (FIG. 2b, 2c).

[4] = Hcrt-1 levels by solid-phase RIA, narcoleptic dog; type: in vivo
Experimental: In order to assess the effect of the intravenous Hcrt-1 injection on central levels of the compound, cerebrospinal fluid (CSF) and blood serum was collected and analyzed after infusion of Hcrt-1. In these studies, Hcrt-1 was injected intravenously as in the behavioral studies into two Doberman pinschers, one narcoleptic, and one control that had been anesthetized with Fluothane anesthesia. Saline was injected in a third dog, a non-narcoleptic control. Prior to injection and at 15, 30 min and one hour intervals after injection, CSF was collected from the cisterna magna with a spinal needle and then quickly frozen at −20. Hypocretin was extracted from 0.5-1 ml samples with reverse a phase SEP-PAK C18 column. An ^125I Hcrt-1 radioimmunoassay was used to measure levels in reconstituted aliquots (described below).
(§4) Prior to RIA, Hcrt-1 is extracted from the CSF or plasma sample. This is achieved by acidification of the sample with 1% TFA followed by loading onto a C18 Sep-Column, washing the column with 1% TFA, and eluting the peptide with 1% TFA/40% acetonitrile. The eluant is then dried down and re-suspended in RIA buffer ready for assay.
The 96-well plates are first coated with protein A(Sigma, binding capacity 9-11 mg of human IgG per mg) by adding 0.1 μg in 100 μl of 0.1M sodium bicarbonate, pH9, to each well. The plates are normally prepared in advance and can be stored for several weeks at 4° C. when tightly wrapped to prevent drying out. However, it is possible to use them after approximately 2 h incubation at room temperature. The protein A solution is then discarded and the plates washed 3 times in a wash buffer consisting of 0.15M K2HPO4, 0.2 mM ascorbic acid, 0.2% Tween 20, pH7.5 and blotted on a paper towel. Next, 200 μl of assay buffer (same as wash buffer plus 0.1% gelatin) is pipetted into each well and left at room temperature for 30 min. This step is included in an attempt to remove protein A bound with only low affinity to the plate which might otherwise dissociate at later stages in the assay thereby removing bound antibody and tracer. After dumping this solution and blotting, 50 μl of the appropriate concentration of antibody diluted with assay buffer is added to all but 4 wells. To these 4 wells are added assay buffer alone to provide an index of non-specific binding. The antibody dilution used is that which is pre-determined to produce 20-30% maximum binding in the assay. The wells are then left for 2 h at room temperature. […]
A 2 h pre-incubation period at room temperature then follows. […] Subsequently the contents of the wells are discarded and the wells washed 3 times with wash buffer and blotted prior to addition of Microscint 20 and counting in the Top Count plate reader. […]

[5] = Hcrt-1 levels by solid-phase RIA, normal human; type: in vivo
Experimental: as §4
The 96-well plates are first coated with protein A(Sigma, binding capacity 9-11 mg of human IgG per mg) by adding 0.1 μg in 100 μl of 0.1M sodium bicarbonate, pH9, to each well. The plates are normally prepared in advance and can be stored for several weeks at 4° C. when tightly wrapped to prevent drying out. However, it is possible to use them after approximately 2 h incubation at room temperature. The protein A solution is then discarded and the plates washed 3 times in a wash buffer consisting of 0.15M K2HPO4, 0.2 mM ascorbic acid, 0.2% Tween 20, pH7.5 and blotted on a paper towel. Next, 200 μl of assay buffer (same as wash buffer plus 0.1% gelatin) is pipetted into each well and left at room temperature for 30 min. This step is included in an attempt to remove protein A bound with only low affinity to the plate which might otherwise dissociate at later stages in the assay thereby removing bound antibody and tracer. After dumping this solution and blotting, 50 μl of the appropriate concentration of antibody diluted with assay buffer is added to all but 4 wells. To these 4 wells are added assay buffer alone to provide an index of non-specific binding. The antibody dilution used is that which is pre-determined to produce 20-30% maximum binding in the assay. The wells are then left for 2 h at room temperature.
Standard solutions of Hcrt-1 are prepared in quadruplet ranging from 0.1 to 50 fmol in 50 μl. These standards (plus four blanks) are made up in RIA buffer. All dilutions are carried out in polypropylene tubes to minimize loss due to ‘sticking’. The contents of each tube are then transferred to the assay wells following dumping of the antibody solution, washing 3 times with wash buffer and blotting.
A 2 h pre-incubation period at room temperature then follows. At the end of this time 50 μl of assay buffer containing approximately 5,000 CPM of ^125I-labeled tracer peptide is added to each well and the plate left to incubate overnight at 4° C. (this final incubation step can be reduced to approx. 2 h with only slight loss of sensitivity). Subsequently the contents of the wells are discarded and the wells washed 3 times with wash buffer and blotted prior to addition of Microscint 20 and counting in the Top Count plate reader. Results from the Solid-Phase Radioimmunoassay (RIA) for Hypocretin (Hcrt-1) are shown below in Table I: […]

[6] = test system: genetically narcoleptic Doberman pinschers; assay: modified food elicited cataplexy test (FECT); type: in vivo; conditions: for cataplexy (number of cataplectic attacks): FECT 4 min after administration; for FECT time (time to consume the food) / cataplexy (number of cataplectic attacks / falls): vs saline control
Experimental: as §1, §3
FECT was done by introducing a bowl of soft food (Pedigree, by Kalkan) in the home cage and counting the number of cataplectic attacks (including hind limb collapse and total cataplexies in which all four limbs collapse and the whole body contacts the floor) and total time required to eat the food (FECT time). All the FECTs began 4 min after the administration of Hcrt-1 or saline.
as §2

[7] = in vivo; cited from earlier work
[8] = 3 μg/kg, representative actigraph record
[9] = single dose, from 2 hrs after administration

Hcrt-1: Hcrt-1 (orexin-A, #003-30, Phoenix Pharmaceuticals) peptide dissolved in normal saline (QPLPDCCRQKTCSCRLYELLHGAGNHAAGILTL; Orexin-A; UniProt O43612 34-66, looked up)
REM sleep ([1]; 3 μg/kg, 4 hr post-injection period, vs saline): significant reduction; also recorded: significant decrease in REM sleep | nonREM sleep ([1]; after Hcrt-1 administration): without change | feeding / rate of food consumption ([2]; period of cataplexy suppression after repeated doses): normal feeding during FECTs; also recorded: consumed their food at a normal rate | abnormal behaviors ([2]; throughout the study): no grooming, “wet dog shakes” or other abnormal behaviors | general health of the dogs ([2]; throughout the study): excellent health | IC50 value for this Hcrt-1 assay (Hcrt-1 antiserum): 2 fmol | REM sleep (REM sleep): selective suppression of REM sleep | motor activity ([3]; 3 μg/kg, after injection, vs saline): increased motor activity; also recorded: increase of motor activity was statistically significant at 0-30 and 30-60 minutes | onset of increase in motor activity after injection [3, 8]: ≤ 5 min | persistence of increase in motor activity [3, 8]: 60 min | sleep consolidation (sleep bout length) ([3]; periods of cataplexy suppression following repeated doses, vs baseline): consolidated (increased sleep bout length) | frequency of sleep bouts ([3]; single dose): reduced; also recorded: decrease in frequency | frequency of wake bouts ([3]; single dose): reduced | how long the effects on sleep and wake period duration lasted ([3]; single dose): more than 24 hrs | mean duration of sleep periods (sleep bout duration) [3, 9]: increased; also recorded: significant increase in sleep bout duration | mean duration of wake periods [3, 9]: increased | total duration of sleep ([3]; vs pre-drug levels): increased after Hcrt-1 as compared to pre-drug levels, but not significantly | Mean level ([4]; Blood serum): 0.011 nM | Range in levels ([4]; Blood serum): 5 to 16 fmol/mL | Mean level ([4]; Cerebrospinal fluid): 0.053 nM | Range in levels ([4]; Cerebrospinal fluid): 26 to 140 fmol/mL | Mean level ([5]; Blood serum): 0.01 nM | Range in levels ([5]; Blood serum): 8 to 14 fmol/mL | Mean level ([5]; Cerebrospinal fluid): 0.062 nM | Range in levels ([5]; Cerebrospinal fluid): 21 to 203 fmol/mL | cataplexy (number of cataplectic attacks) ([6]; 1 μg/kg intravenous): did not produce any change in cataplexy; also recorded: did not affect cataplexy | cataplexy (number of cataplectic attacks) ([6]; 2 μg/kg intravenous): did not produce any change in cataplexy; also recorded: did not affect cataplexy | FECT time (time to consume the food) ([6]; 3 μg/kg intravenous): reduction in the FECT time; also recorded: significant decrease | cataplexy (number of cataplectic attacks / falls) ([6]; 3 μg/kg intravenous): reduction in cataplexy; also recorded: significant decrease in the number of falls | FECT time (time to consume the food) ([6]; 4 μg/kg intravenous): significantly increased the FECT time | cataplexy (number of cataplectic attacks / falls) ([6]; 4 μg/kg intravenous): significantly increased the severity of cataplexy; also recorded: significantly increased the number of falls | effect on cataplexy across doses ([6]; 1 to 4 μg/kg intravenous, ANOVA): significant effect on cataplexy in a dose dependent manner; also recorded: dose dependent change in cataplexy | period without any cataplexy after repeated doses ([6]; after 3-5 doses, two of the 3 dogs treated): ≥ 3 days | time taken to finish the food during the period without cataplexy ([6]; after repeated doses): significantly reduced | period over which severity of cataplexy returned to pretreatment levels ([6]; after repeated doses, both dogs): 3 to 4 days | cataplexy after five doses (FIG. 1D) ([6]; five doses, more severely affected dog): complete suppression of cataplexy during the FECT observed on 3 tests given every other day over a 6 day period | cataplexy after three doses (FIG. 1C) ([6]; three doses, one dog): complete suppression of cataplexy for three consecutive days

iodinated Hcrt-1: iodinated Hcrt-1 reported in the literature to pass the BBB (QPLPDCCRQKTCSCRLYELLHGAGNHAAGILTL; Orexin-A iodinated; UniProt O43612 34-66, looked up)
passage of the BBB [7]: passes the BBB
